The test system of the experiment is Pseudomonas spec. DSM 115322. Nature of the experiment: Minimum inhibitory concentrations and synergy index in Müller-Hinton broth. Format: cell-based. The protocol:
Test organisms used were Gram-negative bacterial species from the group of pseudomonads, Pseudomonas putida DSM 115323 and Pseudomonas spec. DSM 115322. For this purpose, mixtures with different concentrations of the respective active substances were prepared and tested for their effect on the pseudomonads. The test was run in Müller-Hinton broth MHB with a cell density of 10^6 microbes per ml. When organic acids are used as a combination partner with the guanidine, MHB was adjusted to pH 5.5.
The incubation was run in microplates at 30° C. for 48 hours. After 48 hours, the batches were evaluated for turbidity resulting from growth, and optical density was additionally determined photometrically. In this way, the minimum inhibitory concentrations (MICs) of the two actives were determined individually and in combination.
The calculation was done according to the standard method of F. C. Kull et al., Applied Microbiology, vol. 9 (1961), p. 538.
This involves calculating the synergy index (SI) by the following formula:
[formula] • Qa=concentration of component A in the A+B mixture • QA=concentration of component A as the sole biocide • Qb=concentration of component B in the A+B mixture • QB=concentration of component B as the sole biocide
If the synergy index is greater than 1, this means that there is antagonism. If the synergy index assumes the value 1, this means that the effect of the two biocides/compounds is additive. If the synergy index assumes a value of less than 1, this means that there is synergism between the two biocides/compounds.

The mark [1] stands for this setting: mixture with guanidine, Qa, 48 hours at 30° C.

Several values for one entry are separate records, joined by “and”; a condition that tells them apart may be missing. Identical values can stand only once.

29 compounds from US20260262647A1, “Synergistic Compositions Containing Guanidine” (Thor GmbH, priority 2023, published 2026) can be followed below.

On to `OCCCc1ccccc1`, for which, for the setting “guanidine and phenylpropanol, Qa”, the “Synergy index Qa/QA + Qb/QB” value is on record as 1.00. The “QB: Concentration of phenylpropanol as the sole agent that shows an endpoint” value (phenylpropanol alone, 48 hours at 30° C.) stood at 2000 ppm.
Regarding `CCC(N)(CO)CO` [AEPD, 2-aminoethylpropane-1,3-diol], under “AEPD alone, 48 hours at 30° C.”, the “QB: Concentration of AEPD as the sole agent that shows an endpoint” value turned out to be 5000 ppm. In addition, under “guanidine and AEPD, Qa”, the “Synergy index Qa/QA + Qb/QB” value is 1.00.
Regarding `CC(C)(N)CO` [AMP, 2-amino-2-methyl-1-propanol], the “QB: Concentration of AMP as the sole agent that shows an endpoint” value (AMP alone, 48 hours at 30° C.) was 2500 ppm. Further, the “Synergy index Qa/QA + Qb/QB” value (guanidine and AMP, Qa) worked out at 1.00.
Regarding `CCCCn1sc2ccccc2c1=O` [BBIT, N-butyl-1,2-benzisothiazolin-3-one], where the note is “BBIT alone, 48 hours at 30° C.”, the “QB: Concentration of BBIT as the sole agent that shows an endpoint” value stood at 400 ppm. Where the note is “guanidine and BBIT, Qa”, the “Synergy index Qa/QA + Qb/QB” value turned out to be 1.00.
In the case of `N#CCCC(Br)(C#N)CBr` (centres unmarked) [DBDCB, dibromodicyanobutane], the “QB: Concentration of DBDCB as the sole agent that shows an endpoint” value (DBDCB alone, 48 hours at 30° C.) came to 250 ppm. Further, the “Synergy index Qa/QA + Qb/QB” value (guanidine and DBDCB, Qa) is 1.00.
For `N#CC(Br)(Br)C(N)=O` [DBNPA, dibromonitrilopropionamide], where the note is “DBNPA alone, 48 hours at 30° C.”, the “QB: Concentration of DBNPA as the sole agent that shows an endpoint” value is listed as 25 ppm. Further, under “guanidine and DBNPA, Qa”, the “Synergy index Qa/QA + Qb/QB” value was found to be 1.00.
Consider `O=C(O)CN(CCN(CC(=O)O)CC(=O)O)CC(=O)O` [EDTA, ethylenediaminetetraacetic acid], for which, for the setting “EDTA alone, 48 hours at 30° C.”, the “QB: Concentration of EDTA as the sole agent that shows an endpoint” value worked out at 300 ppm. Further, where the note is “guanidine and EDTA, Qa”, the “Synergy index Qa/QA + Qb/QB” value worked out at 1.00. Further, under setting [1], the “Qb (EDTA): Concentration of EDTA in the mixture that shows an endpoint” value is 250 ppm and 200 ppm and 175 ppm and 125 ppm.
As for `CCCCC(CC)COCC(O)CO` (centres unmarked) [EHG, ethylhexylglycerol], the “QB: Concentration of EHG as the sole agent that shows an endpoint” value (EHG alone, 48 hours at 30° C.) turned out to be 2000 ppm. In addition, the “Synergy index Qa/QA + Qb/QB” value (guanidine and EHG, Qa) is 1.00.
Consider `CC(O)(P(=O)(O)O)P(=O)(O)O` [HEDP, (1-hydroxyethylidene)bisphosphonic acid], for which the “QB: Concentration of HEDP as the sole agent that shows an endpoint” value (HEDP alone, 48 hours at 30° C.) is 300 ppm. The “Synergy index Qa/QA + Qb/QB” value (guanidine and HEDP, Qa) amounted to 1.00. Moreover, under setting [1], the “Qb (HEDP): Concentration of HEDP in the mixture that shows an endpoint” value is listed as 1000 ppm.
With `Cn1sc2ccccc2c1=O` [MBIT, N-methyl-1,2-benzisothiazolin-3-one], the “QB: Concentration of MBIT as the sole agent that shows an endpoint” value (MBIT alone, 48 hours at 30° C.) was 300 ppm. Besides, under “guanidine and MBIT, Qa”, the “Synergy index Qa/QA + Qb/QB” value was 1.00.
With `NCCO` [MEA, monoethanolamine], the “QB: Concentration of MEA as the sole agent that shows an endpoint” value (MEA alone, 48 hours at 30° C.) was 2000 ppm. Also, the “Synergy index Qa/QA + Qb/QB” value (guanidine and MEA, Qa) came to 1.00.
Consider `Cn1sccc1=O` [MIT, 2-methyl-4-isothiazolin-3-one], for which the “QB: Concentration of MIT as the sole agent that shows an endpoint” value (MIT alone, 48 hours at 30° C.) was 75 ppm. Besides, under “guanidine and MIT, Qa”, the “Synergy index Qa/QA + Qb/QB” value is 1.00.
`CCCCCCCCn1sccc1=O` [OIT, octylisothiazolinone]: the “QB: Concentration of OIT as the sole agent that shows an endpoint” value (OIT alone, 48 hours at 30° C.) is recorded as 250 ppm. Further, the “Synergy index Qa/QA + Qb/QB” value (guanidine and OIT, Qa) came out at 1.00.
For the compound `O=C(O)c1ccccc1` [benzoic acid], where the note is “benzoic acid (added as sodium benzoate) alone, MHB adjusted to pH 5.5, 48 hours at 30° C.”, the “QB: Concentration of benzoic acid as the sole agent that shows an endpoint” value was 1680 ppm. Moreover, under “guanidine and benzoic acid, Qa, pH 5.5”, the “Synergy index Qa/QA + Qb/QB” value is on record as 1.00.
Take `OCc1ccccc1` [benzyl alcohol]: for the setting “benzyl alcohol alone, 48 hours at 30° C.”, the “QB: Concentration of benzyl alcohol as the sole agent that shows an endpoint” value is listed as 2000 ppm. In addition, the “Synergy index Qa/QA + Qb/QB” value (guanidine and benzyl alcohol, Qa) is recorded as 1.00.
Turning to `O=[N+]([O-])C(Br)(CO)CO` [bronopol], the “QB: Concentration of bronopol as the sole agent that shows an endpoint” value (bronopol alone, 48 hours at 30° C.) stood at 25 ppm. For the same compound, where the note is “guanidine and bronopol, Qa”, the “Synergy index Qa/QA + Qb/QB” value was found to be 1.00.
Consider `O=C(O)CC(O)(CC(=O)O)C(=O)O` [citric acid], for which the “QB: Concentration of citric acid as the sole agent that shows an endpoint” value (citric acid (added as trisodium citrate) alone, MHB adjusted to pH 5.5, 48 hours at 30° C.) is listed as 51293 ppm.
As for `CCCCCC(O)CO` (centres unmarked) [heptane-1,2-diol], where the note is “guanidine and heptane-1,2-diol, Qa”, the “Synergy index Qa/QA + Qb/QB” value is recorded as 1.00. For the setting “heptane-1,2-diol alone, 48 hours at 30° C.”, the “QB: Concentration of heptane-1,2-diol as the sole agent that shows an endpoint” value stood at 3750 ppm.
In the case of `CCCCC(O)CO` (centres unmarked) [hexane-1,2-diol], the “Synergy index Qa/QA + Qb/QB” value (guanidine and hexane-1,2-diol, Qa) is 1.00. For the same compound, for the setting “hexane-1,2-diol alone, 48 hours at 30° C.”, the “QB: Concentration of hexane-1,2-diol as the sole agent that shows an endpoint” value was 7500 ppm.
On to `CCCCCCOCC(O)CO` (centres unmarked) [hexylglycerol], for which, where the note is “guanidine and hexylglycerol, Qa”, the “Synergy index Qa/QA + Qb/QB” value was 1.00. Where the note is “hexylglycerol alone, 48 hours at 30° C.”, the “QB: Concentration of hexylglycerol as the sole agent that shows an endpoint” value was found to be 2000 ppm.
In the case of `CC(C)O` [isopropanol], the “Synergy index Qa/QA + Qb/QB” value (guanidine and isopropanol, Qa) is recorded as 1.00. Besides, the “QB: Concentration of isopropanol as the sole agent that shows an endpoint” value (isopropanol alone, 48 hours at 30° C.) is on record as 60000 ppm.
Turning to `CC(O)C(=O)O` (centres unmarked) [lactic acid], for the setting “guanidine and lactic acid, Qa, pH 5.5”, the “Synergy index Qa/QA + Qb/QB” value came to 1.00. Besides, the “QB: Concentration of lactic acid as the sole agent that shows an endpoint” value (lactic acid (added as sodium L-lactate) alone, MHB adjusted to pH 5.5, 48 hours at 30° C.) came to 15896 ppm.
With `Oc1ccccc1-c1ccccc1` [oPP, o-phenylphenol], the “Synergy index Qa/QA + Qb/QB” value (guanidine and oPP, Qa) was determined as 1.00. Besides, the “QB: Concentration of oPP as the sole agent that shows an endpoint” value (oPP alone, 48 hours at 30° C.) is 750 ppm.
Consider `CCCCCCC(O)CO` (centres unmarked) [octane-1,2-diol], for which, under “guanidine and octane-1,2-diol, Qa”, the “Synergy index Qa/QA + Qb/QB” value is given as 1.00. Also, for the setting “octane-1,2-diol alone, 48 hours at 30° C.”, the “QB: Concentration of octane-1,2-diol as the sole agent that shows an endpoint” value is 2000 ppm.
Regarding `CCCC(O)CO` (centres unmarked) [pentane-1,2-diol], where the note is “guanidine and pentane-1,2-diol, Qa”, the “Synergy index Qa/QA + Qb/QB” value is given as 1.00. For the setting “pentane-1,2-diol alone, 48 hours at 30° C.”, the “QB: Concentration of pentane-1,2-diol as the sole agent that shows an endpoint” value is reported as 10000 ppm.
In the case of `OCCc1ccccc1` [phenethyl alcohol], under “guanidine and phenethyl alcohol, Qa”, the “Synergy index Qa/QA + Qb/QB” value worked out at 1.00. Further, the “QB: Concentration of phenethyl alcohol as the sole agent that shows an endpoint” value (phenethyl alcohol alone, 48 hours at 30° C.) turned out to be 2500 ppm.
In the case of `[O-][n+]1ccccc1S` [pyrithione], the “Synergy index Qa/QA + Qb/QB” value (guanidine and pyrithione, Qa) was found to be 1.00. For the setting “pyrithione (added as sodium pyrithione) alone, 48 hours at 30° C.”, the “QB: Concentration of pyrithione as the sole agent that shows an endpoint” value was 127 ppm.
In the case of `O=C(O)c1ccccc1O` [salicylic acid], under “guanidine and salicylic acid, Qa, pH 5.5”, the “Synergy index Qa/QA + Qb/QB” value turned out to be 1.00. Moreover, the “QB: Concentration of salicylic acid as the sole agent that shows an endpoint” value (salicylic acid (added as sodium salicyate) alone, MHB adjusted to pH 5.5, 48 hours at 30° C.) stood at 1713 ppm.
`C/C=C/C=C/C(=O)O` [sorbic acid]: for the setting “guanidine and sorbic acid, Qa, pH 5.5”, the “Synergy index Qa/QA + Qb/QB” value is given as 1.00. In addition, the “QB: Concentration of sorbic acid as the sole agent that shows an endpoint” value (sorbic acid (added as potassium sorbate) alone, MHB adjusted to pH 5.5, 48 hours at 30° C.) came to 1849 ppm.
